# Measured values: article PMC5524191 (ACS chemical biology, 2016)
# Target: 20S proteasome (Homo sapiens, UniProt P28072+P28074+Q99436)
# Assay: activation of Ac-Arg-Leu-Arg-AMC hydrolysis
# Assay type: biochemical
# Conditions: activator, trypsin-like activity
row,SMILES,fold activation
1,"C=C(CC)C(=O)c1ccc(OCC(=O)NCCCCCCNC(=O)[C@H](CCCNC(=O)OC(C)(C)C)NC(=O)OC(C)(C)C)c(Cl)c1Cl [compound 4, EA-B2O]",Activation of the trypsin-like subunits was also observed with EA-B1G and EA-B2O
2,"C=C(CC)C(=O)c1ccc(OCC(=O)NCCCCCCNC(=O)CNC(=O)OC(C)(C)C)c(Cl)c1Cl [compound 5, EA-B1G]",Activation of the trypsin-like subunits was also observed with EA-B1G and EA-B2O
